Measurements: patent US20040034105A1, “Use of 1-phenyl-3-dimethylaminopropane compounds for treatment of urinary incontinence” (Gruenenthal GmbH, priority 2000, published 2004)
Marks after values point to notes of the source that are not given here.

Tests used:
[1] = system: female rats; test: Cystometry investigations in narcotised fresh rats (suppression of spontaneous bladder contractions); type: in vivo, rat; conditions: intravenous, cumulative, mean value from at least two experiments
Experimental: The cystometric investigation was carried out on fresh female rats according to the method of Kimura et al. (Kimura et al., 1996, Int. J. Urol. 3: 218-227). The abdomen of narcotised ventilated rats is opened and the ureter is ligated. The urine is drawn off from the kidneys. A catheter is inserted into the bladder and secured in place. […] The test substance is applied intravenously in a cumulative manner after stable starting values were reached. An effect on the bladder function is manifested by the suppression of the spontaneous contractions. The disappearance of the contractions over a period of 10 minutes serves as a parameter for their suppression.
With all the substances listed there was a measurable suppression of the spontaneous contractions in rats, Table 2 showing the mean value of the lowest dose from at least two experiments, in which contractions disappeared for the first time over a period of 10 minutes.

[2] = system: female Sprague-Dawley rats; test: Cystometry tests on conscious fresh rats; type: in vivo, rat; conditions: for BC Bladder Capacity (change compared to the baseline value) / ICI Inter-Contraction Interval (change compared to the baseline value) / TP Threshold Pressure (change compared to the baseline value): effect maximum, mean of 3 micturition cycles; for Activity of the enantiomers of racemic compound 1 in cystometry: iv
Experimental: Three days after implantation of bladder and venous catheters the animals were investigated in the conscious state while freely moving. The bladder catheter was connected to a pressure gauge and an injection pump. The animals were placed in metabolic cages that enable the volume of urine to be measured. Physiological saline solution was infused (10 ml/hour) into the emptied bladder and the bladder pressure and volume of urine were continuously recorded. After a stabilisation phase a 20-minute phase was recorded that was characterised by normal, reproducible micturition cycles. The following parameters among others were measured:
threshold pressure TP, bladder pressure immediately before micturition,
bladder capacity BC, residual volume after prior micturition plus volume of infused solution during the filling phase,
intercontraction interval ICI, i.e. the time interval between consecutive micturition.
An increase in the threshold pressure (TP) indicates an important therapeutic effect in one of the medical conditions covered by the invention. Also, the intercontraction interval (ICI) is an important parameter for measuring the physiological effectiveness of a substance in the treatment of urinary incontinence, as is the bladder capacity (BC). In this connection, on account of the widely differing causes of the symptoms of these disease patterns it is not necessary to influence positively all three parameters in order for a medicament to be effective.
After recording three reproducible micturition cycles to provide a baseline value, the test substances 1 (1.0 mg/kg), 2 (0.1; 0.3 and 0.5 mg/kg), 21 (0.5 mg/kg), 7 (0.3 mg/kg), 8 (1.0 mg/kg), 9 (0.5 mg/kg) and 11 (0.5 mg/kg) in a vehicle comprising 0.9% NaCl were applied intravenously and the effect on the cystometric parameters was recorded at 90 to 120 minutes. In the effect maximum the mean value of 3 micturition cycles was determined and recorded as a percentage change compared to the baseline value (Table 1).

Question: How did the “Lowest Dose at which contractions disappeared for the first time over a period of 10 minutes” value (from here on “Lowest Dose … over a period of 10 minutes”) [1] turn out when `CC[C@](O)(c1ccc(Cl)c(Cl)c1)[C@H](C)CN(C)C.Cl` (racemic) [Compound 3, (2RS,3RS)-3-(3,4-dichlorophenyl)-1-dimethylamino-2-methylpentan-3-ol, hydrochloride] was run?
Answer: 23.3 mg/kg

Question: How did the “BC Bladder Capacity (change compared to the baseline value)” value ([2]; 1.0 mg/kg iv) turn out when `CC[C@](O)(c1cccc(OC)c1)[C@H](C)CN(C)C.Cl` (racemic) [Compound 1, (2RS,3RS)-1-dimethylamino-3-(3-methoxyphenyl)-2-methylpentan-3-ol, hydrochloride] was run?
Answer: +31%***

Question: What about the “ICI Inter-Contraction Interval (change compared to the baseline value)” value ([2]; 1.0 mg/kg iv) of the same compound?
Answer: +42%

Question: And the “TP Threshold Pressure (change compared to the baseline value)” value ([2]; 1.0 mg/kg iv)?
Answer: +94%**

Question: How did the “Lowest Dose … over a period of 10 minutes” value [1] turn out when `CC[C@](O)(c1ccc(Cl)cc1)[C@H](C)CN(C)C.Cl` (racemic) [Compound 14, (2RS,3RS)-3-(4-chlorophenyl)-1-dimethylamino-2-methylpentan-3-ol, hydrochloride] was run?
Answer: 20.0 mg/kg

Question: Which results are given for `CC[C@@H](c1cccc(O)c1)[C@@H](C)CN(C)C.Cl` [Compound 11, (−)-(1R,2R)-3-(3-dimethylamino-1-ethyl-2-methylpropyl)-phenol, hydrochloride]?
Answer: BC Bladder Capacity (change compared to the baseline value) ([2]; 0.5 mg/kg iv): +11%; ICI Inter-Contraction Interval (change compared to the baseline value) ([2]; 0.5 mg/kg iv): +22.6%; TP Threshold Pressure (change compared to the baseline value) ([2]; 0.5 mg/kg iv): +9%

Question: How did the “Lowest Dose … over a period of 10 minutes” value [1] turn out when `COc1cccc(C(O)(CCN(C)C)C(C)(C)C)c1.Cl` (racemic) [Compound 6, (3RS)-1-dimethylamino-3-(3-methoxyphenyl)-4,4-dimethylpentan-3-ol, hydrochloride] was run?
Answer: 16.7 mg/kg

Question: How did the “BC Bladder Capacity (change compared to the baseline value)” value ([2]; 1.0 mg/kg iv) turn out when `C[C@H](CN(C)C)[C@@](C)(O)c1cccc(O)c1.Cl` (racemic) [Compound 8, (1RS,2RS)-3-(3-dimethylamino-1-hydroxy-1,2-dimethylpropyl)-phenol, hydrochloride] was run?
Answer: +7%

Question: What about the “ICI Inter-Contraction Interval (change compared to the baseline value)” value ([2]; 1.0 mg/kg iv) of the same compound?
Answer: +14.4%

Question: And the “TP Threshold Pressure (change compared to the baseline value)” value ([2]; 1.0 mg/kg iv)?
Answer: +60%**

Question: Which results are given for `C[C@H](CN(C)C)[C@@](C)(O)c1cccc(O)c1.Cl` [Compound 9, (+)-(1R,2R)-3-(3-dimethylamino-1-hydroxy-1,2-dimethylpropyl)-phenol, hydrochloride]?
Answer: BC Bladder Capacity (change compared to the baseline value) ([2]; 0.5 mg/kg iv): +50%**; ICI Inter-Contraction Interval (change compared to the baseline value) ([2]; 0.5 mg/kg iv): +21%*; TP Threshold Pressure (change compared to the baseline value) ([2]; 0.5 mg/kg iv): +56%**

Question: What does the source list for `CCC(O)(c1cccc(O)c1)C(C)CN(C)C.Cl` (racemic) [Compound 7, (2RS,3RS)-3-(3-dimethylamino-1-ethyl-1-hydroxy-2-methylpropyl)-phenol, hydrochloride]?
Answer: BC Bladder Capacity (change compared to the baseline value) ([2]; 0.3 mg/kg iv): +32%*; ICI Inter-Contraction Interval (change compared to the baseline value) ([2]; 0.3 mg/kg iv): +28%*; TP Threshold Pressure (change compared to the baseline value) ([2]; 0.3 mg/kg iv): +95%**

Question: For `CCC(O)(c1cccc(OC)c1)C1(CN(C)C)CCCCC1.Cl` (racemic) [Compound 13, (1RS)-1-(1-dimethylaminomethylcyclohexyl)-1-(3-methoxyphenyl)-propan-1-ol, hydrochloride], which “Lowest Dose … over a period of 10 minutes” value [1] is on record?
Answer: 20.0 mg/kg

Question: Which “BC Bladder Capacity (change compared to the baseline value)” value ([2]; 0.5 mg/kg iv) does the source give for `CC[C@@](O)(c1cccc(OC)c1)[C@@H](C)CN(C)C.Cl` [Compound 21, (−)-(2S,3S)-1-dimethylamino-3-(3-methoxyphenyl)-2-methylpentan-3-ol, hydrochloride] here?
Answer: +3%

Question: And the “ICI Inter-Contraction Interval (change compared to the baseline value)” value ([2]; 0.5 mg/kg iv)?
Answer: +10%

Question: And the “TP Threshold Pressure (change compared to the baseline value)” value ([2]; 0.5 mg/kg iv)?
Answer: −1.1%

Question: What about the “Activity of the enantiomers of racemic compound 1 in cystometry” value [2] of the same compound?
Answer: plays only a contributory role

Question: With `CC[C@](O)(c1cccc(C(F)F)c1)[C@H](C)CN(C)C.Cl` (racemic) [Compound 4, (2RS,3RS)-3-(3-difluoromethylphenyl)-1-dimethylamino-2-methylpentan-3-ol, hydrochloride] as the compound, how does the “Lowest Dose … over a period of 10 minutes” value [1] read?
Answer: 1.7 mg/kg

Question: `CC[C@](O)(c1cccc(SC)c1)[C@H](C)CN(C)C.Cl` (racemic) [Compound 5, (2RS,3RS)-1-dimethylamino-2-methyl-3-(3-methylsulfanylphenyl)-pentan-3-ol, hydrochloride] was tested. Which “Lowest Dose … over a period of 10 minutes” value [1] did it give?
Answer: 2.3 mg/kg

Question: `C[C@H](CN(C)C)[C@@](C)(O)c1cccc(O)c1.Cl` [Compound 10, (+)-(1R,2R)-3-(3-dimethylamino-1-hydroxy-1,2-dimethylpropyl)-phenol, hydrochloride] was tested. Which “Lowest Dose … over a period of 10 minutes” value [1] did it give?
Answer: 0.2 mg/kg

Question: Which “Lowest Dose … over a period of 10 minutes” value [1] does the source give for `CC[C@](OC(C)=O)(c1cccc(OC)c1)[C@H](C)CN(C)C.Cl` [Compound 12, (+)-(1R,2R)-acetic acid-3-dimethylamino-1-ethyl-1-(3-methoxyphenyl)-2-methylpropyl ester, hydrochloride] here?
Answer: 30.0 mg/kg

Question: Which results are given for `CC[C@](O)(c1cccc(OC)c1)[C@H](C)CN(C)C.Cl` [Compound 2, (+)-(2R,3R)-1-dimethylamino-3-(3-methoxyphenyl)-2-methylpentan-3-ol, hydrochloride]?
Answer: BC Bladder Capacity (change compared to the baseline value) ([2]; 0.1 mg/kg iv): +7.8%; ICI Inter-Contraction Interval (change compared to the baseline value) ([2]; 0.1 mg/kg iv): +15.6%; TP Threshold Pressure (change compared to the baseline value) ([2]; 0.1 mg/kg iv): +28.5%**; BC Bladder Capacity (change compared to the baseline value) ([2]; 0.3 mg/kg iv): +33%*; ICI Inter-Contraction Interval (change compared to the baseline value) ([2]; 0.3 mg/kg iv): +28%*; TP Threshold Pressure (change compared to the baseline value) ([2]; 0.3 mg/kg iv): +122%**; BC Bladder Capacity (change compared to the baseline value) ([2]; 0.5 mg/kg iv): +20.6%*; ICI Inter-Contraction Interval (change compared to the baseline value) ([2]; 0.5 mg/kg iv): +28.6%**; TP Threshold Pressure (change compared to the baseline value) ([2]; 0.5 mg/kg iv): +77.5%**; Activity of the enantiomers of racemic compound 1 in cystometry [2]: effectively active
